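Each compound was tested at five concentrations against cells in 96-well plates for 48 hours. TGI: concentration producing complete growth inhibition.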
What was measured:
Experiment in all cases: DTP human tumour cell line panel, 48 h
786-0 renal = test system: 786-0 renal
A498 renal = test system: A498 renal
A549 NSCLC = test system: A549 NSCLC
ACHN renal = test system: ACHN renal
BT-549 breast = test system: BT-549 breast
CAKI-1 renal = test system: CAKI-1 renal
COLO 205 colon = test system: COLO 205 colon
DU-145 prostate = test system: DU-145 prostate
EKVX NSCLC = test system: EKVX NSCLC
HCC-2998 colon = test system: HCC-2998 colon
HCT-116 colon = test system: HCT-116 colon
HCT-15 colon = test system: HCT-15 colon
HOP-62 NSCLC = test system: HOP-62 NSCLC
HOP-92 NSCLC = test system: HOP-92 NSCLC
HT29 colon = test system: HT29 colon
IGROV1 ovarian = test system: IGROV1 ovarian
KM12 colon = test system: KM12 colon
M14 melanoma = test system: M14 melanoma
MCF7 breast = test system: MCF7 breast
MDA-MB-231 breast = test system: MDA-MB-231 breast
MDA-MB-435 = test system: MDA-MB-435
MDA-N = test system: MDA-N
MOLT-4 leukemia = test system: MOLT-4 leukemia
NCI-H226 lung = test system: NCI-H226 lung
NCI-H23 lung = test system: NCI-H23 lung
NCI-H460 lung = test system: NCI-H460 lung
NCI/ADR-RES ovarian = test system: NCI/ADR-RES ovarian
OVCAR-3 ovarian = test system: OVCAR-3 ovarian
OVCAR-4 ovarian = test system: OVCAR-4 ovarian
OVCAR-5 ovarian = test system: OVCAR-5 ovarian
OVCAR-8 ovarian = test system: OVCAR-8 ovarian
PC-3 prostate = test system: PC-3 prostate
RPMI-8226 leukemia = test system: RPMI-8226 leukemia
RXF 393 renal = test system: RXF 393 renal
SF-268 CNS = test system: SF-268 CNS
SF-295 CNS = test system: SF-295 CNS
SF-539 CNS = test system: SF-539 CNS
SK-MEL-2 melanoma = test system: SK-MEL-2 melanoma
SK-MEL-28 melanoma = test system: SK-MEL-28 melanoma
SK-MEL-5 melanoma = test system: SK-MEL-5 melanoma
SK-OV-3 ovarian = test system: SK-OV-3 ovarian
SN12C renal = test system: SN12C renal
SNB-19 CNS = test system: SNB-19 CNS
SNB-75 CNS = test system: SNB-75 CNS
SR leukemia = test system: SR leukemia
SW-620 colon = test system: SW-620 colon
T-47D breast = test system: T-47D breast
TK-10 renal = test system: TK-10 renal
U251 CNS = test system: U251 CNS
UACC-257 melanoma = test system: UACC-257 melanoma
UACC-62 melanoma = test system: UACC-62 melanoma
UO-31 renal = test system: UO-31 renal

Measured: TGI

OC[C@@H](O)[C@H](O)[C@H](O)[C@@H](O)C1SCCCS1
92.5 µM: HOP-92 NSCLC
> 100 µM: all other assays above

— PubChem BioAssay (NCI)
